Results taken from US8962651B2, “Compounds for the treatment of hepatitis C” (Bristol-Myers Squibb Company, priority 2013, dated 2015).

Test system: genotype 1b (Con-1) HCV replicon
Assay: HCV replicon luciferase assay
Format: cell-based
Conditions: 1b replicon, Huh-7 cells, Renilla luciferase, 3 days incubation
Method: The cell lines used to evaluate compounds consist of a human hepatocyte derived cell line (Huh-7) that constitutively expresses a genotype 1b (Con-1) HCV replicon or a genotype 1b (Con-1) HCV replicon with an asparagine replacing the cysteine at amino acid 316, or a genotype 2a (JFH-1) replicon, containing a Renilla luciferase reporter gene. These cells were maintained in Dulbecco's modified Eagle medium (DMEM) containing 10% FBS, 100 U/mL penicillin/streptomycin and 1.0 mg/mL G418.
After 3 days incubation at 37° C., cells were analyzed for Renilla Luciferase activity using the EnduRen substrate (Promega cat #E6485) according to the manufacturer's directions. Briefly, the EnduRen substrate was diluted in DMEM and then added to the plates to a final concentration of 7.5 μM. The plates were incubated for at least 1 h at 37° C. then read on a Viewlux Imager (PerkinElmer) using a luminescence program.

CCC(C)c1nc2oc(-c3ccc(F)cc3)c(C(=O)NC)c2cc1-c1cccc(C(=O)NC(C)(C)c2ncon2)c1 (stereo not shown) [Example 15, 5-(3-((2-(1,2,4-oxadiazol-3-yl)propan-2-yl)carbamoyl)phenyl)-6-(sec-butyl)-2-(4-fluorophenyl)-N-methylfuro[2,3-b]pyridine-3-carboxamide] gave an EC50 of 4.98 nM.
With CCC(C)c1nc2oc(-c3ccc(F)cc3)c(C(=O)NC)c2cc1-c1cccc(C(=O)NC(C)(C)c2ncon2)c1 (stereo not shown) [Example 16, 5-(3-((2-(1,2,4-oxadiazol-3-yl)propan-2-yl)carbamoyl)phenyl)-6-(sec-butyl)-2-(4-fluorophenyl)-N-methylfuro[2,3-b]pyridine-3-carboxamide] the EC50 was 20 nM.

Same assay, conditions: Hepatitis C virus, Huh-7, 72 h, 1b replicon, Huh-7 cells, Renilla luciferase, 3 days incubation

CNC(=O)c1c(-c2ccc(F)cc2)oc2nc(NCC(F)(F)F)c(-c3cccc(C(=O)NC(C)(C)c4nc(C)no4)c3)cc12 [Example 7, 2-(4-fluorophenyl)-N-methyl-5-(3-((2-(3-methyl-1,2,4-oxadiazol-5-yl)propan-2-yl)carbamoyl)phenyl)-6-((2,2,2-trifluoroethyl)amino)furo[2,3-b]pyridine-3-carboxamide] and CNC(=O)c1c(-c2ccc(F)cc2)oc2nc(NCC(F)(F)F)c(-c3cccc(C(=O)NC(C)(C)c4noc(C)n4)c3)cc12 [Example 11, 2-(4-fluorophenyl)-N-methyl-5-(3-((2-(5-methyl-1,2,4-oxadiazol-3-yl)propan-2-yl)carbamoyl)phenyl)-6-((2,2,2-trifluoroethyl)amino)furo[2,3-b]pyridine-3-carboxamide] are within 1.5-fold of each other in EC50: 3.46 nM for the first, 4.96 nM for the second.

CNC(=O)c1c(-c2ccc(F)cc2)oc2nc(NCC(F)(F)F)c(-c3ccc(OC)c(C(=O)NC(C)(C)c4ncon4)c3)cc12 [Example 14, 5-(3-((2-(1,2,4-oxadiazol-3-yl)propan-2-yl)carbamoyl)-4-methoxyphenyl)-2-(4-fluorophenyl)-N-methyl-6-((2,2,2-trifluoroethyl)amino)furo[2,3-b]pyridine-3-carboxamide] and CNC(=O)c1c(-c2ccc(F)cc2)oc2nc(NCC(F)(F)F)c(-c3cnc(OC)c(C(=O)NC(C)(C)c4ncon4)c3)cc12 [Example 29, 5-[2-(4-fluorophenyl)-3-(methylcarbamoyl)-6-[(2,2,2-trifluoroethyl)amino]furo[2,3-b]pyridin-5-yl]-2-methoxy-N-[2-(1,2,4-oxadiazol-3-yl)propan-2-yl]pyridine-3-carboxamide] are within 1.5-fold of each other in EC50: 6.67 nM for the first, 8.01 nM for the second.

Going from [2H]C([2H])([2H])Oc1ncc(-c2cc3c(C(=O)NC)c(-c4ccc(F)cc4)oc3nc2OCC(F)(F)F)cc1C(=O)NC(c1ncon1)(C([2H])([2H])[2H])C([2H])([2H])[2H] [Example 21, 5-[2-(4-fluorophenyl)-3-(methylcarbamoyl)-6-(2,2,2-trifluoroethoxy)furo[2,3-b]pyridin-5-yl]-2-(^2H3)methoxy-N-[2-(1,2,4-oxadiazol-3-yl)(^2H6)propan-2-yl]pyridine-3-carboxamide] to [2H]C([2H])([2H])Oc1ncc(-c2cc3c(C(=O)NC)c(-c4ccc(F)cc4)oc3nc2NCC(F)(F)F)cc1C(=O)NC(c1ncon1)(C([2H])([2H])[2H])C([2H])([2H])[2H] [Example 18, 5-[2-(4-fluorophenyl)-3-(methylcarbamoyl)-6-[(2,2,2-trifluoroethyl)amino]furo[2,3-b]pyridin-5-yl]-2-(^2H3)methoxy-N-[2-(1,2,4-oxadiazol-3-yl)(^2H6)propan-2-yl]pyridine-3-carboxamide], the EC50 rises from 2.23 nM to 4.32 nM (1.9-fold). The first is the more potent here.

CNC(=O)c1c(-c2ccc(F)cc2)oc2nc(CCC(F)(F)F)c(-c3cccc(C(=O)NC(C)(C)c4ncon4)c3)cc12 [Example 1, 5-(3-((2-(1,2,4-oxadiazol-3-yl)propan-2-yl)carbamoyl)phenyl)-2-(4-fluorophenyl)-N-methyl-6-(3,3,3-trifluoropropyl)furo[2,3-b]pyridine-3-carboxamide] and CNC(=O)c1c(-c2ccc(F)cc2)oc2nc(NCC(F)(F)F)c(-c3cccc(C(=O)NC(C)(C)c4ncon4)c3)cc12 [Example 12, 5-(3-((2-(1,2,4-oxadiazol-3-yl)propan-2-yl)carbamoyl)phenyl)-2-(4-fluorophenyl)-N-methyl-6-((2,2,2-trifluoroethyl)amino)furo[2,3-b]pyridine-3-carboxamide] are within 1.5-fold of each other in EC50: 3.02 nM for the first, 2.95 nM for the second.

[2H]C([2H])([2H])Oc1ncc(-c2cc3c(C(=O)NC)c(-c4ccc(F)cc4)oc3nc2NCC(F)(F)F)cc1C(=O)NC(C)(C)c1ncon1 [Example 27, 5-[2-(4-fluorophenyl)-3-(methylcarbamoyl)-6-[(2,2,2-trifluoroethyl)amino]furo[2,3-b]pyridin-5-yl]-2-(^2H3)methoxy-N-[2-(1,2,4-oxadiazol-3-yl)propan-2-yl]pyridine-3-carboxamide] and [2H]C([2H])([2H])C(NC(=O)c1cc(-c2cc3c(C(=O)NC)c(-c4ccc(F)cc4)oc3nc2NCC(F)(F)F)cnc1OC)(c1ncon1)C([2H])([2H])[2H] [Example 26, 5-[2-(4-fluorophenyl)-3-(methylcarbamoyl)-6-[(2,2,2-trifluoroethyl)amino]furo[2,3-b]pyridin-5-yl]-2-methoxy-N-[2-(1,2,4-oxadiazol-3-yl)(^2H6)propan-2-yl]pyridine-3-carboxamide] are within 1.5-fold of each other in EC50: 4.32 nM for the first, 6.26 nM for the second.

First: [2H]C([2H])([2H])Oc1ncc(-c2cc3c(C(=O)NC)c(-c4ccc(F)cc4)oc3nc2OCC(F)(F)F)cc1C(=O)NC(C)(C)c1ncon1 [Example 22, 5-[2-(4-fluorophenyl)-3-(methylcarbamoyl)-6-(2,2,2-trifluoroethoxy)furo[2,3-b]pyridin-5-yl]-2-(^2H3)methoxy-N-[2-(1,2,4-oxadiazol-3-yl)propan-2-yl]pyridine-3-carboxamide]
Second: [2H]C([2H])([2H])Oc1ncc(-c2cc3c(C(=O)NC)c(-c4ccc(F)cc4)oc3nc2CCC(F)(F)F)cc1C(=O)NC(C)(c1ncon1)C1CC1 (stereo not shown) [Example 30, N-[1-cyclopropyl-1-(1,2,4-oxadiazol-3-yl)ethyl]-5-[2-(4-fluorophenyl)-3-(methylcarbamoyl)-6-(3,3,3-trifluoropropyl)furo[2,3-b]pyridin-5-yl]-2-(^2H3)methoxypyridine-3-carboxamide]
The EC50 of the first is 2.6-fold lower: 1.7 nM for the first, 4.35 nM for the second.

CNC(=O)c1c(-c2ccc(F)cc2)oc2nc(NCC(F)(F)F)c(-c3cccc(C(=O)NC4(c5ncon5)CCC4)c3)cc12 [Example 5, 5-(3-((1-(1,2,4-oxadiazol-3-yl)cyclobutyl)carbamoyl)phenyl)-2-(4-fluorophenyl)-N-methyl-6-((2,2,2-trifluoroethyl)amino)furo[2,3-b]pyridine-3-carboxamide] and CNC(=O)c1c(-c2ccc(F)cc2)oc2nc(NCC(F)(F)F)c(-c3cccc(C(=O)NC4(c5noc(C)n5)CC4)c3)cc12 [Example 6, 2-(4-fluorophenyl)-N-methyl-5-(3-((1-(5-methyl-1,2,4-oxadiazol-3-yl)cyclopropyl)carbamoyl)phenyl)-6-((2,2,2-trifluoroethyl)amino)furo[2,3-b]pyridine-3-carboxamide] are within 1.5-fold of each other in EC50: 4.96 nM for the first, 4.76 nM for the second.

[2H]c1nc(C(NC(=O)c2cc(-c3cc4c(C(=O)NC)c(-c5ccc(F)cc5)oc4nc3NCC(F)(F)F)cnc2OC([2H])([2H])[2H])(C([2H])([2H])[2H])C([2H])([2H])[2H])no1 [Example 19, 5-[2-(4-fluorophenyl)-3-(methylcarbamoyl)-6-[(2,2,2-trifluoroethyl)amino]furo[2,3-b]pyridin-5-yl]-2-(^2H3)methoxy-N-{2-[(^2H)-1,2,4-oxadiazol-3-yl](^2H6)propan-2-yl}pyridine-3-carboxamide] and CNC(=O)c1c(-c2ccc(F)cc2)oc2nc(NCC(F)(F)F)c(-c3cccc(C(=O)NC4(c5nc(C)no5)CC4)c3)cc12 [Example 8, 2-(4-fluorophenyl)-N-methyl-5-(3-((1-(3-methyl-1,2,4-oxadiazol-5-yl)cyclopropyl)carbamoyl)phenyl)-6-((2,2,2-trifluoroethyl)amino)furo[2,3-b]pyridine-3-carboxamide] are within 1.5-fold of each other in EC50: 5.77 nM for the first, 5.6 nM for the second.

For CNC(=O)c1c(-c2ccc(F)cc2)oc2nc(CCC(F)(F)F)c(-c3cccc(C(=O)NC(C)(C)c4noc(C)n4)c3)cc12 [Example 10, 2-(4-fluorophenyl)-N-methyl-5-(3-((2-(5-methyl-1,2,4-oxadiazol-3-yl)propan-2-yl)carbamoyl)phenyl)-6-(3,3,3-trifluoropropyl)furo[2,3-b]pyridine-3-carboxamide], the EC50 was 3.61 nM.
